pIC50: −log10 of the molar value.
Experiments:
Assay in all cases: cells
HH = assay type: functional, cell-based, Homo sapiens; settings: Homo sapiens, HH
Description: SANGER: Inhibition of human HH cell growth in a cell viability assay.

SK-UT-1 = assay type: functional, cell-based, Homo sapiens; settings: Homo sapiens, SK-UT-1;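 further: growth inhibition of SK-UT-1 cells, measured by a cell viability assay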
Description: SANGER: Inhibition of human SK-UT-1 cell growth in a cell viability assay.

ES8 = assay type: functional, cell-based, Homo sapiens; settings: Homo sapiens, ES8;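 further: growth inhibition of human ES8 cells, read out with a cell viability assay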
Description: SANGER: Inhibition of human ES8 cell growth in a cell viability assay.

NCI-H1155 = assay type: functional, cell-based, Homo sapiens; settings: Homo sapiens, NCI-H1155;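 further: cell growth inhibition measured by a viability assay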
Description: SANGER: Inhibition of human NCI-H1155 cell growth in a cell viability assay.

LNCaP-Clone-FGC = assay type: functional, cell-based, Homo sapiens; settings: Homo sapiens, LNCaP-Clone-FGC
Description: SANGER: Inhibition of human LNCaP-Clone-FGC cell growth in a cell viability assay.

SK-N-FI = assay type: functional, cell-based, Homo sapiens; settings: Homo sapiens, SK-N-FI;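 further: cell viability assay measuring growth inhibition of human SK-N-FI cells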
Description: SANGER: Inhibition of human SK-N-FI cell growth in a cell viability assay.

D-502MG = assay type: functional, cell-based, Homo sapiens; settings: Homo sapiens, D-502MG
Description: SANGER: Inhibition of human D-502MG cell growth in a cell viability assay.

SF-268 = assay type: functional, cell-based, Homo sapiens; settings: Homo sapiens, SF-268;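 further: growth inhibition of SF-268 cells determined with a cell viability assay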
Description: SANGER: Inhibition of human SF268 cell growth in a cell viability assay.

P30-OHK = assay type: functional, cell-based, Homo sapiens; settings: Homo sapiens, P30-OHK;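 further: growth inhibition of the P30-OHK cell line, read out with a cell viability assay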
Description: SANGER: Inhibition of human P30-OHK cell growth in a cell viability assay.

GR-ST = assay type: functional, cell-based, Homo sapiens; settings: Homo sapiens, GR-ST
Description: SANGER: Inhibition of human GR-ST cell growth in a cell viability assay.

HCC2157 = assay type: functional, cell-based, Homo sapiens; settings: Homo sapiens, HCC2157;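 further: growth inhibition of the cancer cell line, read out as cell viability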
Description: SANGER: Inhibition of human HCC2157 cell growth in a cell viability assay.

SCH = assay type: functional, cell-based, Homo sapiens; settings: Homo sapiens, SCH;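 further: growth inhibition of human SCH cells, read out in a cell viability assay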
Description: SANGER: Inhibition of human SCH cell growth in a cell viability assay.

DJM-1 = assay type: functional, cell-based, Homo sapiens; settings: Homo sapiens, DJM-1;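 further: growth inhibition of human DJM-1 cells, read out by a cell viability assay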
Description: SANGER: Inhibition of human DJM-1 cell growth in a cell viability assay.

COR-L88 = assay type: functional, cell-based, Homo sapiens; settings: Homo sapiens, COR-L88;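 further: growth inhibition of COR-L88 cells, read out with a cell viability assay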
Description: SANGER: Inhibition of human COR-L88 cell growth in a cell viability assay.

NB69 = assay type: functional, cell-based, Homo sapiens; settings: Homo sapiens, NB69;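 further: growth inhibition of NB69 cells, determined by a cell viability assay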
Description: SANGER: Inhibition of human NB69 cell growth in a cell viability assay.

NCI-H1648 = assay type: functional, cell-based, Homo sapiens; settings: Homo sapiens, NCI-H1648;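 further: cell viability assay measuring inhibition of NCI-H1648 cell growth, from the Sanger screening data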
Description: SANGER: Inhibition of human NCI-H1648 cell growth in a cell viability assay.

D-263MG = assay type: functional, cell-based, Homo sapiens; settings: Homo sapiens, D-263MG
Description: SANGER: Inhibition of human D-263MG cell growth in a cell viability assay.

MZ2-MEL = assay type: functional, cell-based, Homo sapiens; settings: Homo sapiens, MZ2-MEL;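 further: growth inhibition of MZ2-MEL cells read out with a cell viability assay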
Description: SANGER: Inhibition of human MZ2-MEL cell growth in a cell viability assay.

LB771-HNC = assay type: functional, cell-based; settings: Homo sapiens;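 further: growth inhibition of LB771-HNC human cells, read out with a cell viability assay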
Description: SANGER: Inhibition of human LB771-HNC cell growth in a cell viability assay.

NB5 = assay type: functional, cell-based, Homo sapiens; settings: Homo sapiens, NB5;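 further: growth inhibition of NB5 cells, read out as cell viability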
Description: SANGER: Inhibition of human NB5 cell growth in a cell viability assay.

HCC1187 = assay type: functional, cell-based, Homo sapiens; settings: Homo sapiens, HCC1187;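 further: growth inhibition of HCC1187 cells, read out with a cell viability assay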
Description: SANGER: Inhibition of human HCC1187 cell growth in a cell viability assay.

CAS-1 = assay type: functional, cell-based, Homo sapiens; settings: Homo sapiens, CAS-1;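 further: growth inhibition of CAS-1 cells, measured with a cell viability assay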
Description: SANGER: Inhibition of human CAS-1 cell growth in a cell viability assay.

NMC-G1 = assay type: functional, cell-based, Homo sapiens; settings: Homo sapiens, NMC-G1;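 further: growth inhibition of the NMC-G1 cell line, measured with a cell viability read-out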
Description: SANGER: Inhibition of human NMC-G1 cell growth in a cell viability assay.

LB996-RCC = assay type: functional, cell-based, Homo sapiens; settings: Homo sapiens, LB996-RCC
Description: SANGER: Inhibition of human LB996-RCC cell growth in a cell viability assay.

MMAC-SF = assay type: functional, cell-based; settings: Homo sapiens;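 further: growth inhibition of human MMAC-SF cells, read out with a cell viability assay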
Description: SANGER: Inhibition of human MMAC-SF cell growth in a cell viability assay.

OMC-1 = assay type: functional, cell-based, Homo sapiens; settings: Homo sapiens, OMC-1;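 further: growth inhibition of the OMC-1 cell line, measured by a cell viability assay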
Description: SANGER: Inhibition of human OMC-1 cell growth in a cell viability assay.

HCE-T = assay type: functional, cell-based, Homo sapiens; settings: Homo sapiens, HCE-T;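 further: cell viability assay read-out, reporting inhibition of HCE-T cell growth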
Description: SANGER: Inhibition of human HCE-T cell growth in a cell viability assay.

EW-1 = assay type: functional, cell-based, Homo sapiens; settings: Homo sapiens, EW-1
Description: SANGER: Inhibition of human EW-1 cell growth in a cell viability assay.

K5 = assay type: functional, cell-based, Homo sapiens; settings: Homo sapiens, K5
Description: SANGER: Inhibition of human K5 cell growth in a cell viability assay.

Ramos-2G6-4C10 = assay type: functional, cell-based, Homo sapiens; settings: Homo sapiens, Ramos-2G6-4C10;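 further: growth inhibition of the cell line, measured by a cell viability read-out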
Description: SANGER: Inhibition of human Ramos-2G6-4C10 cell growth in a cell viability assay.

LS-1034 = assay type: functional, cell-based, Homo sapiens; settings: Homo sapiens, LS-1034
Description: SANGER: Inhibition of human LS-1034 cell growth in a cell viability assay.

ALL-PO = assay type: functional, cell-based, Homo sapiens; settings: Homo sapiens, ALL-PO;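 further: growth inhibition of ALL-PO cells, read out by a cell viability assay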
Description: SANGER: Inhibition of human ALL-PO cell growth in a cell viability assay.

ES6 = assay type: functional, cell-based; settings: Homo sapiens;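 further: growth inhibition of human ES6 cells, read out with a cell viability assay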
Description: SANGER: Inhibition of human ES6 cell growth in a cell viability assay.

EW-16 = assay type: functional, cell-based, Homo sapiens; settings: Homo sapiens, EW-16;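 further: growth inhibition of human EW-16 cells, read out as cell viability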
Description: SANGER: Inhibition of human EW-16 cell growth in a cell viability assay.

NCI-H82 = assay type: functional, cell-based, Homo sapiens; settings: Homo sapiens, NCI-H82;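 further: growth inhibition of NCI-H82 cells, measured with a cell viability readout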
Description: SANGER: Inhibition of human NCI-H82 cell growth in a cell viability assay.

COLO-824 = assay type: functional, cell-based, Homo sapiens; settings: Homo sapiens, COLO-824
Description: SANGER: Inhibition of human COLO-824 cell growth in a cell viability assay.

TE-6 = assay type: functional, cell-based, Homo sapiens; settings: Homo sapiens, TE-6;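 further: growth inhibition of TE-6 cells, read out with a cell viability assay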
Description: SANGER: Inhibition of human TE-6 cell growth in a cell viability assay.

RPMI-8226 = assay type: functional, cell-based, Homo sapiens; settings: Homo sapiens, RPMI-8226
Description: SANGER: Inhibition of human RPMI-8226 cell growth in a cell viability assay.

NCI-H1581 = assay type: functional, cell-based, Homo sapiens; settings: Homo sapiens, NCI-H1581;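 further: cell growth inhibition read out by a viability assay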
Description: SANGER: Inhibition of human NCI-H1581 cell growth in a cell viability assay.

TE-9 = assay type: functional, cell-based, Homo sapiens; settings: Homo sapiens, TE-9;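 further: cell growth inhibition, measured with a cell viability readout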
Description: SANGER: Inhibition of human TE-9 cell growth in a cell viability assay.

ML-2 = assay type: functional, cell-based, Homo sapiens; settings: Homo sapiens, ML-2;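 further: growth inhibition of ML-2 cells, measured with a cell viability readout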
Description: SANGER: Inhibition of human ML-2 cell growth in a cell viability assay.

SW872 = assay type: functional, cell-based, Homo sapiens; settings: Homo sapiens, SW872;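 further: growth inhibition of SW872 cells, read out by a viability assay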
Description: SANGER: Inhibition of human SW872 cell growth in a cell viability assay.

LAN-6 = assay type: functional, cell-based, Homo sapiens; settings: Homo sapiens, LAN-6;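 further: growth inhibition of LAN-6 cells, determined with a cell viability assay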
Description: SANGER: Inhibition of human LAN-6 cell growth in a cell viability assay.

KARPAS-45 = assay type: functional, cell-based, Homo sapiens; settings: Homo sapiens, KARPAS-45;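 further: inhibition of cell line growth, read out through a viability assay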
Description: SANGER: Inhibition of human KARPAS-45 cell growth in a cell viability assay.

A388 = assay type: functional, cell-based; settings: Homo sapiens;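 further: growth inhibition of human A388 cells, read out with a cell viability assay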
Description: SANGER: Inhibition of human A388 cell growth in a cell viability assay.

MOLT-16 = assay type: functional, cell-based, Homo sapiens; settings: Homo sapiens, MOLT-16;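 further: growth inhibition of human MOLT-16 cells, read out with a cell viability assay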
Description: SANGER: Inhibition of human MOLT-16 cell growth in a cell viability assay.

SBC-1 = assay type: functional, cell-based, Homo sapiens; settings: Homo sapiens, SBC-1;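 further: cell viability assay measuring growth inhibition of the SBC-1 cell line, IC50 being the concentration that halves growth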
Description: SANGER: Inhibition of human SBC-1 cell growth in a cell viability assay.

NCI-H720 = assay type: functional, cell-based, Homo sapiens; settings: Homo sapiens, NCI-H720;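 further: growth inhibition of human NCI-H720 cells determined by a cell viability assay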
Description: SANGER: Inhibition of human NCI-H720 cell growth in a cell viability assay.

NCI-H1304 = assay type: functional, cell-based, Homo sapiens; settings: Homo sapiens, NCI-H1304;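 further: growth inhibition of the cancer cell line, measured in a cell viability assay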
Description: SANGER: Inhibition of human NCI-H1304 cell growth in a cell viability assay.

ES7 = assay type: functional, cell-based, Homo sapiens; settings: Homo sapiens, ES7;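 further: growth inhibition of cultured human ES7 cells, read out as cell viability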
Description: SANGER: Inhibition of human ES7 cell growth in a cell viability assay.

C/C(=C\c1csc(C)n1)[C@@H]1C[C@@H]2O[C@]2(C)CCC[C@H](C)[C@H](O)[C@@H](C)C(=O)C(C)(C)[C@@H](O)CC(=O)O1 [PATUPILONE]
pIC50 (HH): 8.01
pIC50 (SK-UT-1): 9.05
pIC50 (ES8): 8.78
pIC50 (NCI-H1155): < 7.49
pIC50 (LNCaP-Clone-FGC): 8.37
pIC50 (SK-N-FI): < 7.49
pIC50 (D-502MG): < 7.49
pIC50 (SF-268): 8.33
pIC50 (P30-OHK): 8.35
pIC50 (GR-ST): 8.41
pIC50 (HCC2157): 8.89
pIC50 (SCH): < 7.49
pIC50 (DJM-1): 8.50
pIC50 (COR-L88): < 7.49
pIC50 (NB69): 8.09
pIC50 (NCI-H1648): 9.01
pIC50 (D-263MG): < 7.49
pIC50 (MZ2-MEL): 8.67
pIC50 (LB771-HNC): 8.07
pIC50 (NB5): 7.97
pIC50 (HCC1187): 7.65
pIC50 (CAS-1): 7.61
pIC50 (NMC-G1): 8.76
pIC50 (LB996-RCC): 8.22
pIC50 (MMAC-SF): 7.64
pIC50 (OMC-1): < 7.49
pIC50 (HCE-T): 8.39
pIC50 (EW-1): 8.72
pIC50 (K5): 8.25
pIC50 (Ramos-2G6-4C10): 8.02
pIC50 (LS-1034): 9.04
pIC50 (ALL-PO): 8.83
pIC50 (ES6): 7.95
pIC50 (EW-16): 8.97
pIC50 (NCI-H82): < 7.49
pIC50 (COLO-824): 7.63
pIC50 (TE-6): 7.64
pIC50 (RPMI-8226): 8.17
pIC50 (NCI-H1581): < 7.49
pIC50 (TE-9): 8.80
pIC50 (ML-2): 8.61
pIC50 (SW872): 9.11
pIC50 (LAN-6): < 7.49
pIC50 (KARPAS-45): 8.24
pIC50 (A388): 9.03
pIC50 (MOLT-16): 8.47
pIC50 (SBC-1): < 7.49
pIC50 (NCI-H720): < 7.49
pIC50 (NCI-H1304): 7.76
pIC50 (ES7): 8.23

NC(=O)c1cccc(-c2cc(Nc3ccc(OC(F)(F)F)cc3)ncn2)c1
pIC50 (HH): < 5.89
pIC50 (SK-UT-1): < 5.89
pIC50 (ES8): < 5.89
pIC50 (NCI-H1155): < 5.89
pIC50 (LNCaP-Clone-FGC): < 5.89
pIC50 (SK-N-FI): < 5.89
pIC50 (D-502MG): < 5.89
pIC50 (SF-268): < 5.89
pIC50 (P30-OHK): < 5.89
pIC50 (GR-ST): < 5.89
pIC50 (HCC2157): < 5.89
pIC50 (SCH): < 5.89
pIC50 (DJM-1): < 5.89
pIC50 (COR-L88): < 5.89
pIC50 (NB69): < 5.89
pIC50 (NCI-H1648): < 5.89
pIC50 (D-263MG): < 5.89
pIC50 (MZ2-MEL): < 5.89
pIC50 (LB771-HNC): < 5.89
pIC50 (NB5): < 5.89
pIC50 (HCC1187): < 5.89
pIC50 (CAS-1): < 5.89
pIC50 (NMC-G1): < 5.89
pIC50 (LB996-RCC): < 5.89
pIC50 (MMAC-SF): < 5.89
pIC50 (OMC-1): < 5.89
pIC50 (HCE-T): < 5.89
pIC50 (EW-1): < 5.89
pIC50 (K5): < 5.89
pIC50 (Ramos-2G6-4C10): < 5.89
pIC50 (LS-1034): < 5.89
pIC50 (ALL-PO): < 5.89
pIC50 (ES6): < 5.89
pIC50 (EW-16): < 5.89
pIC50 (NCI-H82): < 5.89
pIC50 (COLO-824): < 5.89
pIC50 (TE-6): < 5.89
pIC50 (RPMI-8226): < 5.89
pIC50 (NCI-H1581): < 5.89
pIC50 (TE-9): < 5.89
pIC50 (ML-2): < 5.89
pIC50 (SW872): < 5.89
pIC50 (LAN-6): < 5.89
pIC50 (KARPAS-45): < 5.89
pIC50 (A388): < 5.89
pIC50 (MOLT-16): < 5.89
pIC50 (SBC-1): 6.00
pIC50 (NCI-H720): < 5.89
pIC50 (NCI-H1304): < 5.89
pIC50 (ES7): < 5.89

Cc1ccc(C(=O)Nc2ccc(CN3CCN(C)CC3)c(C(F)(F)F)c2)cc1C#Cc1cnc2cccnn12 [PONATINIB]
pIC50 (HH): < 6.29
pIC50 (SK-UT-1): < 6.29
pIC50 (ES8): < 6.29
pIC50 (NCI-H1155): < 6.29
pIC50 (LNCaP-Clone-FGC): < 6.29
pIC50 (SK-N-FI): < 6.29
pIC50 (D-502MG): < 6.29
pIC50 (SF-268): 6.35
pIC50 (P30-OHK): 6.80
pIC50 (GR-ST): < 6.29
pIC50 (HCC2157): < 6.29
pIC50 (SCH): < 6.29
pIC50 (DJM-1): < 6.29
pIC50 (COR-L88): < 6.29
pIC50 (NB69): < 6.29
pIC50 (NCI-H1648): < 6.29
pIC50 (D-263MG): < 6.29
pIC50 (MZ2-MEL): < 6.29
pIC50 (LB771-HNC): < 6.29
pIC50 (NB5): < 6.29
pIC50 (HCC1187): < 6.29
pIC50 (CAS-1): 6.55
pIC50 (NMC-G1): < 6.29
pIC50 (LB996-RCC): < 6.29
pIC50 (MMAC-SF): < 6.29
pIC50 (OMC-1): < 6.29
pIC50 (HCE-T): < 6.29
pIC50 (EW-1): < 6.29
pIC50 (K5): < 6.29
pIC50 (Ramos-2G6-4C10): < 6.29
pIC50 (LS-1034): < 6.29
pIC50 (ALL-PO): 6.91
pIC50 (ES6): < 6.29
pIC50 (EW-16): < 6.29
pIC50 (NCI-H82): < 6.29
pIC50 (COLO-824): < 6.29
pIC50 (TE-6): < 6.29
pIC50 (RPMI-8226): < 6.29
pIC50 (NCI-H1581): < 6.29
pIC50 (TE-9): < 6.29
pIC50 (ML-2): < 6.29
pIC50 (SW872): < 6.29
pIC50 (LAN-6): < 6.29
pIC50 (KARPAS-45): 6.31
pIC50 (A388): < 6.29
pIC50 (MOLT-16): < 6.29
pIC50 (SBC-1): < 6.29
pIC50 (NCI-H720): < 6.29
pIC50 (NCI-H1304): < 6.29
pIC50 (ES7): < 6.29

COC(=O)[C@H](CCSC)NC(=O)c1ccc(NC[C@@H](N)CS)cc1-c1ccccc1
pIC50 (HH): < 5.99
pIC50 (SK-UT-1): < 5.99
pIC50 (ES8): < 5.99
pIC50 (NCI-H1155): < 5.99
pIC50 (LNCaP-Clone-FGC): < 5.99
pIC50 (SK-N-FI): < 5.99
pIC50 (D-502MG): < 5.99
pIC50 (SF-268): < 5.99
pIC50 (P30-OHK): < 5.99
pIC50 (GR-ST): < 5.99
pIC50 (HCC2157): < 5.99
pIC50 (SCH): < 5.99
pIC50 (DJM-1): < 5.99
pIC50 (COR-L88): < 5.99
pIC50 (NB69): < 5.99
pIC50 (NCI-H1648): < 5.99
pIC50 (D-263MG): < 5.99
pIC50 (MZ2-MEL): < 5.99
pIC50 (LB771-HNC): < 5.99
pIC50 (NB5): < 5.99
pIC50 (HCC1187): < 5.99
pIC50 (CAS-1): < 5.99
pIC50 (NMC-G1): < 5.99
pIC50 (LB996-RCC): < 5.99
pIC50 (MMAC-SF): < 5.99
pIC50 (OMC-1): < 5.99
pIC50 (HCE-T): < 5.99
pIC50 (EW-1): < 5.99
pIC50 (K5): < 5.99
pIC50 (Ramos-2G6-4C10): < 5.99
pIC50 (LS-1034): < 5.99
pIC50 (ALL-PO): < 5.99
pIC50 (ES6): < 5.99
pIC50 (EW-16): < 5.99
pIC50 (NCI-H82): < 5.99
pIC50 (COLO-824): < 5.99
pIC50 (TE-6): < 5.99
pIC50 (RPMI-8226): < 5.99
pIC50 (NCI-H1581): < 5.99
pIC50 (TE-9): < 5.99
pIC50 (ML-2): < 5.99
pIC50 (SW872): < 5.99
pIC50 (LAN-6): < 5.99
pIC50 (KARPAS-45): < 5.99
pIC50 (A388): < 5.99
pIC50 (MOLT-16): < 5.99
pIC50 (SBC-1): < 5.99
pIC50 (NCI-H720): < 5.99
pIC50 (NCI-H1304): < 5.99
pIC50 (ES7): < 5.99

Source: ChEMBL document CHEMBL1201861, “Genomics of Drug Sensitity in Cancer screening data, Wellcome Trust Sanger Institute”
